Reference: the OligoGym collection
After the bases stand the sugars from the 5' end (letter, count) and the backbone: PS all phosphorothioate, else s phosphorothioate and o phosphodiester by linkage. Methylation of C is not given here. e = 2'-O-(2-methoxyethyl) (MOE); k = constrained ethyl (cEt); d = 2'-deoxy (DNA); m = 2'-O-methyl

Biological target: HSD17B13
Details: ASO, HepaRG

| Sequence | target mRNA inhibition (1 µM) | other results |
| --- | --- | --- |
| GTAGCTTTTGTCCACC (sugars k3 d1 m1 d8 k3, PS) | 64% | – |
| GTAGCTTTTGTCCACC (sugars k3 d10 k3, PS) | 63% | – |
| GTAGGAGTAGATGATG (sugars k3 d10 k3, PS) | 7% | – |
| GTAGTGGGAGTCGGAT (sugars k3 d10 k3, PS) | 48% | – |
| GTATAAATGGCAATTC (sugars k3 d10 k3, PS) | 56% | – |
| GTATAGTTATCTTCTC (sugars kkkdddddkdddkkke, PS) | 68% | – |
| GTATGGTAAGCCCCAT (sugars k3 d10 k3, PS) | 36% | – |
| GTATGTTTATGTAAGC (sugars k3 d1 m1 d8 k3, PS) | 66% | target mRNA inhibition (0.02 µM): 0%; target mRNA inhibition (0.078 µM): 0%; target mRNA inhibition (0.313 µM): 10%; target mRNA inhibition (1.25 µM): 72%; target mRNA inhibition (5 µM): 90% |
| GTATGTTTATGTAAGC (sugars kkdddddddddkekek, PS) | 72% | target mRNA inhibition (0.02 µM): 11%; target mRNA inhibition (0.078 µM): 27%; target mRNA inhibition (0.313 µM): 53%; target mRNA inhibition (1.25 µM): 63%; target mRNA inhibition (5 µM): 68% |
| GTATTAAGACAGTTGA (sugars k3 d10 k3, PS) | 45% | – |
| GTATTCCATCTATCAG (sugars kkdddddddddkekek, PS) | 48% | – |
| GTATTTCGCTACTGTA (sugars k3 d10 k3, PS) | 76% | target mRNA inhibition (0.02 µM): 0%; target mRNA inhibition (0.078 µM): 0%; target mRNA inhibition (0.313 µM): 24%; target mRNA inhibition (1.25 µM): 64%; target mRNA inhibition (5 µM): 86% |
| GTCAAAAACCGTCAAA (sugars k3 d10 k3, PS) | 39% | – |
| GTCACCTTTCATAATG (sugars kkdddddddddkekek, PS) | 4% | – |
| GTCCAGAAGTATGTGA (sugars k3 d10 k3, PS) | 9% | – |
| GTCCAGGTTGAGATAA (sugars k3 d10 k3, PS) | 60% | – |
| GTCCTAGGATGTTGAC (sugars k3 d10 k3, PS) | 1% | – |
| GTCCTTGTGTAGTCCT (sugars k3 d10 k3, PS) | 62% | – |
| GTCGGTCACCTTTCAT (sugars k3 d1 m1 d8 k3, PS) | 66% | – |
| GTCGGTCACCTTTCAT (sugars k3 d10 k3, PS) | 85% | target mRNA inhibition (0.02 µM): 16%; target mRNA inhibition (0.078 µM): 37%; target mRNA inhibition (0.313 µM): 57%; target mRNA inhibition (1.25 µM): 82%; target mRNA inhibition (5 µM): 90% |
| GTCTAAACATCTCTGG (sugars k3 d9 k3 e1, PS) | 49% | – |
| GTCTAAACATCTCTGG (sugars kkdddddddddkekek, PS) | 50% | – |
| GTCTACCTCTAAGTTA (sugars k3 d9 k3 e1, PS) | 41% | – |

| Sequence | target mRNA inhibition (1 µM) | other results |
| --- | --- | --- |
| GTCTUAAACCTTCCCT (sugars k3 d1 m1 d8 k3, PS) | 35% | – |
| GTGACATAACTACTTC (sugars k3 d10 k3, PS) | 68% | – |
| GTGATTGAGTTCTCCA (sugars k3 d10 k3, PS) | 80% | target mRNA inhibition (0.02 µM): 10%; target mRNA inhibition (0.078 µM): 14%; target mRNA inhibition (0.313 µM): 32%; target mRNA inhibition (1.25 µM): 73%; target mRNA inhibition (5 µM): 83% |
| GTGCATCTTAAGATAC (sugars kkdddddddddkekek, PS) | 20% | – |
| GTGCCAAACCAATGTT (sugars kkdddddddddkekek, PS) | 38% | – |
| GTGCTTTTGTGATCCA (sugars k3 d10 k3, PS) | 62% | – |
| GTGGCATGGCTACAGA (sugars k3 d9 k3 e1, PS) | 38% | – |
| GTGGCCATGATTTCTC (sugars k3 d10 k3, PS) | 40% | – |
| GTGGCCGCACACTGAA (sugars k3 d10 k3, PS) | 41% | – |
| GTGTTAGCTTTAATTT (sugars k3 d10 k3, PS) | 48% | – |
| GTGTTCTTGTTGATAT (sugars k3 d9 k3 e1, PS) | 66% | – |
| GTGTTTACAAGTAAGA (sugars k3 d10 k3, PS) | 79% | – |
| GTGTUCTTGTTGATAT (sugars k3 d1 m1 d8 k3, PS) | 52% | – |
| GTTACATTACAGCCTT (sugars k3 d10 k3, PS) | 71% | target mRNA inhibition (0.02 µM): 0%; target mRNA inhibition (0.078 µM): 18%; target mRNA inhibition (0.313 µM): 50%; target mRNA inhibition (1.25 µM): 73%; target mRNA inhibition (5 µM): 86% |
| GTTATACAGAAGACAG (sugars k3 d10 k3, PS) | 54% | – |
| GTTATTAGAAGTCAGC (sugars k3 d10 k3, PS) | 56% | – |
| GTTATTCTCTTGACAA (sugars kkdddddddddkekek, PS) | 27% | – |
| GTTCAACTGAACCTCT (sugars k3 d10 k3, PS) | 55% | – |
| GTTCTTGTTGATATTC (sugars k3 d9 k3 e1, PS) | 69% | – |
| GTTGAGATAAAGCTGC (sugars k3 d9 k3 e1, PS) | 59% | – |
| GTTGAGATAAAGCTGC (sugars k3 d10 k3, PS) | 54% | – |
| GTTGCACCGTTTTGGG (sugars k3 d1 m1 d8 k3, PS) | 38% | – |
| GTTTACTCACTTCTGG (sugars k3 d10 k3, PS) | 29% | – |

| Sequence | target mRNA inhibition (1 µM) | other results |
| --- | --- | --- |
| GTTTAGCTGATAGGCT (sugars k3 d10 k3, PS) | 47% | – |
| GTTTCAACTAAACATG (sugars k3 d10 k3, PS) | 65% | – |
| GTTTCCTCCACACCGC (sugars k3 d10 k3, PS) | 45% | – |
| GTTTCTAGGTCAGTAG (sugars k3 d10 k3, PS) | 73% | – |
| GTTTCTTATGTAATAG (sugars k3 d10 k3, PS) | 46% | – |
| GTTTCTTATGTAATAG (sugars kkdddddddddkekek, PS) | 21% | – |
| GTTTCTTATGTAATAG (sugars kkkddddkddddkkke, PS) | 44% | – |
| GTTTGACTGCTGCTAG (sugars k3 d10 k3, PS) | 58% | – |
| GTTTTCGGCACTCAGC (sugars k3 d10 k3, PS) | 51% | – |
| GTTTTTAAGAGGCATG (sugars k3 d10 k3, PS) | 63% | – |
| GTTTTTAAGAGGCATG (sugars kkdddddddddkekek, PS) | 79% | target mRNA inhibition (0.02 µM): 15%; target mRNA inhibition (0.078 µM): 13%; target mRNA inhibition (0.313 µM): 12%; target mRNA inhibition (1.25 µM): 61%; target mRNA inhibition (5 µM): 71% |
| GTTTTTTGAACCGTAT (sugars k3 d10 k3, PS) | 71% | target mRNA inhibition (0.02 µM): 0%; target mRNA inhibition (0.078 µM): 0%; target mRNA inhibition (0.313 µM): 9%; target mRNA inhibition (1.25 µM): 56%; target mRNA inhibition (5 µM): 74% |
| GTTTUGGGCTAATGAA (sugars k3 d1 m1 d8 k3, PS) | 30% | – |
| TAAAAATTGGCCTCCT (sugars k3 d10 k3, PS) | 29% | – |
| TAAAATAGAGTCGGTC (sugars k3 d10 k3, PS) | 81% | target mRNA inhibition (0.02 µM): 1%; target mRNA inhibition (0.078 µM): 9%; target mRNA inhibition (0.313 µM): 47%; target mRNA inhibition (1.25 µM): 80%; target mRNA inhibition (5 µM): 90% |
| TAAACATCTCTGGGAC (sugars k3 d10 k3, PS) | 51% | – |
| TAAACCTTCCCTGTGT (sugars kkdddddddddkekek, PS) | 9% | – |
| TAAATTACTCCGTTCT (sugars k3 d10 k3, PS) | 36% | – |
| TAACATTCGGCTAGGC (sugars k3 d10 k3, PS) | 52% | – |
| TAACTCTATTGATTGG (sugars k3 d10 k3, PS) | 51% | – |
| TAAGAGGCATGAAAGG (sugars k3 d1 m1 d8 k3, PS) | 50% | – |
| TAAGAGTCAGTATCCT (sugars k3 d10 k3, PS) | 52% | – |
| TAAGATACCCAGGTTG (sugars kkdddddddddkekek, PS) | 30% | – |

| Sequence | target mRNA inhibition (1 µM) | other results |
| --- | --- | --- |
| TAAGCAGAATTGTGAA (sugars k3 d10 k3, PS) | 35% | – |
| TAAGGAGTAGTGGAGC (sugars k3 d10 k3, PS) | 18% | – |
| TAAGGCAAAGATCTGG (sugars k3 d10 k3, PS) | 46% | – |
| TAAGTTACCAGAGCAT (sugars k3 d10 k3, PS) | 77% | target mRNA inhibition (0.02 µM): 0%; target mRNA inhibition (0.078 µM): 0%; target mRNA inhibition (0.313 µM): 30%; target mRNA inhibition (1.25 µM): 71%; target mRNA inhibition (5 µM): 91% |
| TAATACATTAGCAAGC (sugars k3 d10 k3, PS) | 33% | – |
| TAATACATTAGCAAGC (sugars kkdddddddddkekek, PS) | 34% | – |
| TAATAGCCAGTACAGT (sugars k3 d10 k3, PS) | 64% | – |
| TAATCACAAGTAAGGT (sugars k3 d10 k3, PS) | 54% | – |
| TAATGAATCATGATTG (sugars k3 d10 k3, PS) | 2% | – |
| TAATTGCATCTGCTCG (sugars k3 d10 k3, PS) | 46% | – |
| TAATTTTCAGATCCCG (sugars k3 d10 k3, PS) | 75% | target mRNA inhibition (0.02 µM): 0%; target mRNA inhibition (0.078 µM): 9%; target mRNA inhibition (0.313 µM): 41%; target mRNA inhibition (1.25 µM): 62%; target mRNA inhibition (5 µM): 89% |
| TAATTTTCGGGTTCTT (sugars k3 d10 k3, PS) | 40% | – |
| TACAACCTGGTTTCAT (sugars k3 d10 k3, PS) | 25% | – |
| TACAGATTGGAATGCT (sugars k3 d9 k3 e1, PS) | 66% | – |
| TACAGGCCATAATCTT (sugars k3 d10 k3, PS) | 16% | – |
| TACATTAGCAAGCTAA (sugars k3 d10 k3, PS) | 29% | – |
| TACCAGAGCATTCATC (sugars k3 d10 k3, PS) | 55% | – |
| TACCTCTAAGTTAGCC (sugars k3 d10 k3, PS) | 28% | – |
| TACCTTATTAATATCC (sugars k3 d10 k3, PS) | 54% | – |
| TACTGTCCCAGCATTA (sugars k3 d10 k3, PS) | 21% | – |
| TACTTGAACAGTCTTA (sugars k3 d9 k3 e1, PS) | 65% | – |
